Measured values reported in paper PMC3480348, “Structure and Activity Analysis of Inauhzin Analogs as Novel Antitumor Compounds That Induce p53 and Inhibit Cell Growth” (PLoS ONE, 2012).
Entries after “also recorded” stand apart in the source; their conditions may differ. Where two headings read alike, the source gives them in different places. Each block holds one molecule with its values, some of them ahead of it.

Key:
[1] = system: p53 level in HCT116^+/+ cells; experiment: p53 induction by immunoblotting (IB) in HCT116^+/+ cells; format: cell-based, human; conditions: 2 µM, 18 hrs; IB normalized to GAPDH, compared to 2 µM INZ
Experimental: (§1) EC90 values were calculated from the EC50 and Hill slope by a web-based calculator: http://www.graphpad.com/quickcalcs/Ecanything1.cfm.

[2] = system: p53 level in H460 cells; experiment: p53 induction by immunoblotting (IB) in H460 cells; format: cell-based, human; conditions: 2 µM, 18 hrs; IB normalized to GAPDH, compared to 2 µM INZ
[3] = system: p53 level in H460 and HCT116^+/+ cells; experiment: p53 induction by immunoblotting (IB), statement does not separate the cell lines; format: cell-based, human; conditions: 18 hrs, 0.5, 2, 10 µM
From the text: (A–B) Initial Inauhzin analogs were purchased and tested the activity on H460 and HCT116^+/+ by immunoblotting (IB). […]

[4] = system: H1299 cells; experiment: 3-day WST-8 cell growth inhibition assay, H1299 (p53 null); format: cell-based, human; conditions: for EC50 / EC90: Homo sapiens; for EC50: NCI-H1299, 72 h WST-8, average of triplicates, highest concentration 100 µM; for effect on p53-null H1299 cells compared with p53-containing cells: in vitro cytotoxicity; for EC50 on H1299 fold higher than on H460 cells: p53-null H1299 vs p53-containing H460; for EC90: NCI-H1299, calculated from EC50 and Hill slope
Experimental: as §1

[5] = system: H460 cells; experiment: 3-day WST-8 cell growth inhibition assay, H460; format: cell-based, human; conditions: for EC50: Homo sapiens, NCI-H460, 72 h WST-8, average of triplicates, highest concentration 50 µM, read-out: EC50, cell growth inhibition, H460 p53 wild type
[6] = system: HCT116^+/+ cells; experiment: 3-day WST-8 cell growth inhibition assay, HCT116^+/+; format: cell-based, human; conditions: for EC50: HCT-116, 72 h WST-8, average of triplicates, highest concentration 50 µM, read-out: EC50, cell growth inhibition, HCT116^+/+ p53 wild type; for EC90 fold lower than that for INZ, HCT116^+/+: statement covers H460 and HCT116^+/+ together; for EC90: read-out: EC90, cell growth inhibition, HCT116^+/+ p53 wild type
Experimental: as §1

[7] = system: H460 cells; experiment: 3-day WST-8 cell growth inhibition assay, H460; format: cell-based, human; conditions: for EC90: read-out: EC90, cell growth inhibition, H460 p53 wild type; for EC90 fold lower than that for INZ, H460: statement covers H460 and HCT116^+/+ together
Experimental: as §1

[8] = system: HCT116^−/− cells; experiment: 3-day WST-8 cell growth inhibition assay, HCT116^−/− (p53 null); format: cell-based, human; conditions: for EC50: Homo sapiens, HCT-116, 72 h WST-8, average of triplicates, highest concentration 100 µM; for effect on p53-null HCT116^−/− cells compared with p53-containing cells: in vitro cytotoxicity
[9] = system: HCT116^−/− cells; experiment: as above; format: cell-based; conditions: Homo sapiens, HCT-116, calculated from EC50 and Hill slope
Experimental: as §1

[10] = Homo sapiens, NCI-H460, calculated from EC50 and Hill slope (GraphPad web calculator)
[11] = Homo sapiens, HCT-116, calculated from EC50 and Hill slope

SMILES: CCC(Sc1nnc2c(n1)[nH]c1ccccc12)C(=O)N1c2ccccc2Sc2ccc(Cl)cc21 (stereo not shown) [Compound 6, 2-((5H-[1,2,4]triazino[5,6-b]indol-3-yl)thio)-1-(2-chloro-10H-phenothiazin-10-yl)butan-1-one]
- p53 induction in HCT116^+/+ cells [1]: < 50%
- p53 induction in H460 cells [2]: < 50%
- p53 induction / activation by synthetic analogs [3]: remained active in p53 induction

- EC50 [4]: 10.4 µM
- EC50 on H1299 fold higher than on H460 cells [4]: 3–15 fold
- EC50 [5]: 2.7 µM
- EC50 ([6]; Homo sapiens): 1.3 µM
- EC90 fold lower than that for INZ, HCT116^+/+ [6]: 3–10 fold
- EC90 [7, 10]: 3.5 to 10 µM
- EC90 fold lower than that for INZ, H460 [7]: 3–10 fold
- EC50 [8]: 5.9 ± 1 µM
SMILES: CCC(Sc1nnc2c(n1)[nH]c1ccccc12)C(=O)N1c2ccccc2Cc2ccccc21 (stereo not shown) [Compound 8, 2-((5H-[1,2,4]triazino[5,6-b]indol-3-yl)thio)-1-(acridin-10(9H)-yl)butan-1-one]
- effect on p53-null H1299 cells compared with p53-containing cells [4]: much less effective
- p53 induction / activation by synthetic analogs [3]: drastically induced p53 at 0.5 µM; also recorded: greater potentcy than compound 1; also recorded: more potent in p53 activation than their parental compound INZ
- fold higher potency than INZ in growth inhibition of H460 cells ([5]; EC50 compared with INZ): more than 2 fold
- fold higher potency than INZ in growth inhibition of HCT116^+/+ cells ([6]; EC50 compared with INZ): more than 2 fold
- effect on p53-null HCT116^−/− cells compared with p53-containing cells [8]: much less effective

SMILES: CCC(Sc1nnc2c(n1)[nH]c1ccccc12)C(=O)N1c2ccccc2Oc2ccccc21 (stereo not shown) [Compound 9, 2-((5H-[1,2,4]triazino[5,6-b]indol-3-yl)thio)-1-(10H-phenoxazin-10-yl)butan-1-one]
- p53 induction / activation by synthetic analogs [3]: inactive

SMILES: CCCCC(Sc1nnc2c(n1)[nH]c1ccccc12)C(=O)N1c2ccccc2Sc2ccccc21 (stereo not shown) [Compound 14, 2-((5H-[1,2,4]triazino[5,6-b]indol-3-yl)thio)-1-(10H-phenothiazin-10-yl)hexan-1-one]
- p53 induction / activation by synthetic analogs [3]: lower activity for p53 induction

SMILES: CCC(Sc1nnc2c(n1)[nH]c1cc(F)ccc12)C(=O)N1c2ccccc2Sc2ccccc21 (stereo not shown) [Compound 15, 2-((7-fluoro-5H-[1,2,4]triazino[5,6-b]indol-3-yl)thio)-1-(10H-phenothiazin-10-yl)butan-1-one]
- p53 induction / activation by synthetic analogs [3]: inactive

SMILES: CCC(Sc1nnc2c(n1)[nH]c1cc(OC)ccc12)C(=O)N1c2ccccc2Sc2ccccc21 (stereo not shown) [Compound 18, 2-((7-methoxy-5H-[1,2,4]triazino[5,6-b]indol-3-yl)thio)-1-(10H-phenothiazin-10-yl)butan-1-one]
- p53 induction / activation by synthetic analogs [3]: marked decrease in p53 activation

- EC90 [4]: 173 µM
- EC50 [4]: 40.2 ± 7.4 µM
- EC50 [5]: 6 ± 0.6 µM
- EC90 [9]: > 1000 µM
- EC90 [6, 11]: 29.7 µM
- EC50 ([6]; Homo sapiens): 2.2 ± 0.2 µM
- EC90 ([6]; calculated from EC50 and Hill slope): 20 to 30 µM
- EC90 [7, 10]: 26.5 µM
- EC90 ([7]; calculated from EC50 and Hill slope (GraphPad web calculator)): 20 to 30 µM
- EC90 fold lower than that for INZ, H460 [7]: 1.5 fold
- EC50 [8]: 44.2 ± 10.3 µM
SMILES: CCC(Sc1nnc2c(n1)[nH]c1cc(C)ccc12)C(=O)N1c2ccccc2Sc2ccccc21 (stereo not shown) [Compound 19, 2-((7-methyl-5H-[1,2,4]triazino[5,6-b]indol-3-yl)thio)-1-(10H-phenothiazin-10-yl)butan-1-one]
- effect on p53-null H1299 cells compared with p53-containing cells [4]: much less effective
- p53 induction / activation by synthetic analogs [3]: significant effect on p53 induction compared to INZ at 0.5 µM
- effect on p53-null HCT116^−/− cells compared with p53-containing cells [8]: much less effective

- EC90 [4]: 82.3 µM
- EC50 [4]: 12.6 ± 1.4 µM
- EC50 [5]: 4.3 ± 0.3 µM
- EC90 [9]: > 1000 µM
- EC90 [6, 11]: 21.9 µM
- EC50 ([6]; Homo sapiens): 2.1 ± 1 µM
- EC90 [7, 10]: 9.6 µM
- EC50 [8]: 28.2 ± 1.4 µM
SMILES: CCC(Sc1nnc2c3ccccc3n(C(=O)c3ccccc3)c2n1)C(=O)N1c2ccccc2Sc2ccccc21 (stereo not shown) [Compound 21, 2-((5-benzoyl-5H-[1,2,4]triazino[5,6-b]indol-3-yl)thio)-1-(10H-phenothiazin-10-yl)butan-1-one]
- effect on p53-null H1299 cells compared with p53-containing cells [4]: much less effective
- effect on p53-null HCT116^−/− cells compared with p53-containing cells [8]: much less effective

- EC50 [5]: 4.9 ± 1 µM
- EC90 [7, 10]: 20.5 µM
SMILES: CCC(Sc1nnc2c3ccccc3n(C(=O)c3cccnc3)c2n1)C(=O)N1c2ccccc2Sc2ccccc21 (stereo not shown) [Compound 22, 2-((5-nicotinoyl-5H-[1,2,4]triazino[5,6-b]indol-3-yl)thio)-1-(10H-phenothiazin-10-yl)butan-1-one]

- EC50 [5]: 6.7 ± 0.7 µM
- EC90 [7, 10]: 22.6 µM
SMILES: CCCCCC(=O)C1(SC(CC)C(=O)N2c3ccccc3Sc3ccccc32)N=c2[nH]c3ccccc3c2=NN1 (stereo not shown) [Compound 23, 1-(3-((1-oxo-1-(10H-phenothiazin-10-yl)butan-2-yl)thio)-5H-[1,2,4]triazino[5,6-b]indol-3-yl)hexan-1-one]

- EC50 [5]: 5.7 ± 0.3 µM
- EC90 [7, 10]: 14.5 µM
SMILES: C=CCCC(=O)n1c2ccccc2c2nnc(SC(CC)C(=O)N3c4ccccc4Sc4ccccc43)nc21 (stereo not shown) [Compound 24, 1-(3-((1-oxo-1-(10H-phenothiazin-10-yl)butan-2-yl)thio)-5H-[1,2, 4]triazino[5,6-b]indol-5-yl)pent-4-en-1-one]

- EC50 [5]: 16 ± 0.9 µM
- EC90 [7, 10]: 38.2 µM
SMILES: CCC(Sc1nnc2c3ccccc3n(C(=O)CCCCBr)c2n1)C(=O)N1c2ccccc2Sc2ccccc21 (stereo not shown) [Compound 26, 5-bromo-1-(3-((1-oxo-1-(10H-phenothiazin-10-yl)butan-2-yl)thio)-5H-[1,2, 4]triazino[5,6-b]indol-5-yl)pentan-1-one]

- EC50 [5]: 3.4 ± 0.3 µM
- EC90 [7, 10]: 9 µM
SMILES: CCOC(=O)CCCC(=O)n1c2ccccc2c2nnc(SC(CC)C(=O)N3c4ccccc4Sc4ccccc43)nc21 (stereo not shown) [Compound 27, Ethyl 5-oxo-5-(3-((1-oxo-1-(10H-phenothiazin-10-yl)butan-2-yl)thio)-5H-[1,2,4]triazino[5,6-b]indol-5-yl)pentanoate]

SMILES: CCOC(=O)Cn1c2ccccc2c2nnc(SC(CC)C(=O)N3c4ccccc4Sc4ccccc43)nc21 (stereo not shown) [Compound 28, Ethyl 2-(3-((1-oxo-1-(10H-phenothiazin-10-yl)butan-2-yl)thio)-5H-[1,2,4]triazino[5,6-b]indol-5-yl)acetate]
- p53 induction / activation by synthetic analogs [3]: essentially inactive

SMILES: CCC(Sc1nnc2c3ccccc3n(CC(=O)O)c2n1)C(=O)N1c2ccccc2Sc2ccccc21 (stereo not shown) [Compound 29, 2-(3-((1-oxo-1-(10H-phenothiazin-10-yl)butan-2-yl)thio)-5H-[1,2,4]triazino[5,6-b]indol-5-yl)acetic acid]
- p53 induction / activation by synthetic analogs [3]: essentially inactive

- EC50 [4]: 16.6 µM
- EC50 on H1299 fold higher than on H460 cells [4]: 3–15 fold
- EC50 [5]: 3.5 ± 0.4 µM
- EC90 [6, 11]: 4.6 µM
- EC50 ([6]; Homo sapiens): 0.8 ± 0.5 µM
- EC90 fold lower than that for INZ, HCT116^+/+ [6]: 5 fold
- EC90 [7, 10]: ~7.7 µM
- EC90 fold lower than that for INZ, H460 [7]: 5 fold
- EC50 [8]: 7.8 ± 3.4 µM
SMILES: CCC(Sc1nnc2c3ccccc3n(CCO)c2n1)C(=O)N1c2ccccc2Sc2ccccc21 (stereo not shown) [Compound 30, 2-((5(2-hydoxyethyl)-5H-[1,2,4]triazino[5,6-b]indol-5-yl)thiol)-1-(10H-phenothiazin-10-yl)butan-1-one]
- effect on p53-null H1299 cells compared with p53-containing cells [4]: much less effective
- p53 induction / activation by synthetic analogs [3]: comparable to compound 8; also recorded: more potent in p53 activation than their parental compound INZ
- effect on p53-null HCT116^−/− cells compared with p53-containing cells [8]: much less effective

SMILES: C#CCCn1c2ccccc2c2nnc(SC(CC)C(=O)N3c4ccccc4Sc4ccccc43)nc21 (stereo not shown) [Compound 32, 2-((5(but-3-yn-1-yl)-5H-[1,2,4]triazino[5,6-b]indol-3-yl)thiol)-1-(10H-phenothiazin-10-yl)butan-1-one]
- p53 induction / activation by synthetic analogs [3]: significant decrease in activity

SMILES: CCC(Sc1nnc2c3ccccc3n(CC(=O)c3ccccc3)c2n1)C(=O)N1c2ccccc2Sc2ccccc21 (stereo not shown) [Compound 33, 2-((5-(2-oxo-2-phenylethyl)-5H-[1,2,4]triazino[5,6-b]indol-3-yl)thiol)-1-(10H-phenothiazin-10-yl)butan-1-one]
- p53 induction / activation by synthetic analogs [3]: significant decrease in activity

- EC90 fold greater in p53-null cells than in p53-containing cell lines ([4]; H1299, HCT116^−/− vs H460, HCT116^+/+): 5–7 fold
- EC90 [4]: 217 µM
- EC50 [4]: 11.6 ± 3.4 µM
- EC50 [5]: 7.7 ± 1.1 µM
- EC90 [9]: 213 µM
- EC90 [6, 11]: 30.5 µM
- EC50 ([6]; Homo sapiens): 2.7 ± 0.3 µM
- EC90 [7, 10]: 39.9 µM
- EC50 [8]: 13.3 ± 2.4 µM
SMILES: CCC(Sc1nnc2c(n1)[nH]c1ccccc12)C(=O)N1c2ccccc2Sc2ccccc21 (stereo not shown) [INZ, 2-((5H-[1,2,4]triazino[5,6-b]indole-3yl)thio)-1-(10H-phenothiazin-10-yl)butan-1-one]
